Results: publication PMC12670426 (Journal of Medicinal Chemistry, 2025)
Like-named read-outs stand apart in the source and are kept apart here.

What was measured:
[1] = molecular target: T1, human galectin-1 (Gal-1, full length) (Homo sapiens, UniProt P09382); test: Competitive fluorescence polarization assay, Gal-1; format: binding
T1 construct: Gal-1 is a prototype galectin consisting of a single CRD and was used in full length; 6xHis tag with TEV protease site (N, cleaved yes); made in house; host or cells: BL21 Escherichia coli (pET-15b)
Method: (§1) Our investigation of the structure–activity relationship of N-aryl-N-lactosylamides started with an initial screening of substituted acetanilides (Table ). These compounds can be readily synthesized from a wide range of commercially available substituted anilines. Affinity was evaluated using a fluorescence polarization assay, which enables reliable determination of dissociation constants (K d) between small molecules and galectins. All inhibitors in this series were tested against the two most common human galectins: Gal-1 and Gal-3. Gal-1 is a prototype galectin consisting of a single CRD and was used in full length. In the case of Gal-3, which consists of the C-terminal CRD and N-terminal unfolded region, only the C-terminal domain was used (Gal-3C). Affinities were compared to methyl β-lactoside (β-LacOMe) as a baseline.
(§2) Fluorescence polarization experiments for determining inhibitor affinities were performed using the same instrumentation and settings as described for the direct binding experiments. […] The galectin–probe mixture was subsequently added using a Certus Flex liquid handler (Fritz Gyger AG, Switzerland) to reach a final volume of 5 μL. Anisotropy was measured after 30–60 min incubation at 25 °C. Inhibitor dissociation constants (K d) were calculated using Wang’s exact cubic model for competitive binding implemented in the BindCurve package. Protein and probe concentrations used in these competitive experiments are provided in the Supporting Information.
(§3) Competitive binding was modeled by Wang’s exact cubic model,3 which is written as […]
(§4) r = rmin + (rmax − rmin) 3 (6) […]
(§5) where r, rmin and rmax have the same meaning as in Equation 1. The coefficients a, b, and c are […]
(§6) a = Kd∗ + Kd + [L∗]T + [L]T − [R]T (7) b = Kd∗([L]T − [R]T) + Kd([L∗]T − [R]T) + Kd∗ Kd (8) […]
(§7) where Kd∗ is the dissociation constant of the probe, Kd is the dissociation constant of the […]
(§8) the unlabeled ligand, and [R]T is the total concentration of the receptor. The angle θ is defined […]
(§9) In the competitive binding experiments, the values of [L∗]T, [R]T and Kd∗ are known and [L]T is titrated. The values of minimal and maximal anisotropy rmin and rmax were fixed during fitting at the values of the minimal and maximal asymptotes obtained from the direct binding experiments. The value of Kd was calculated as the only unfixed parameter in the model.
(§10) Experimental constants used for the competitive fluorescence polarization experiments are […]
(§11) Table S2. Experimental constants used for competitive fluorescence polarization experiments. […]

[2] = molecular target: T2, human galectin-3C (Gal-3C, C-terminal CRD of galectin-3) (Homo sapiens, UniProt P17931); test: Competitive fluorescence polarization assay, Gal-3C; format: binding
T2 construct: only the C-terminal domain was used (Gal-3C); 6xHis tag with TEV protease site (N, cleaved yes); made in house; host or cells: BL21 Escherichia coli (pET-15b)
Method: as §1, §2, §3, §4, §5, §6, §7, §8, §9, §10, §11

[3] = CSV supplement, unrounded mean, read-out: Gal1_IC50_mean_uM
[4] = CSV supplement, unrounded mean, read-out: Gal1_Kd_mean_uM
[5] = competitive fluorescence polarization, mean ± SD, read-out: Kd Gal-1
[6] = four-parameter logistic model, mean ± SD, read-out: IC50 Gal-1
[7] = CSV supplement, unrounded mean, read-out: Gal3C_IC50_mean_uM
[8] = CSV supplement, unrounded mean, read-out: Gal3C_Kd_mean_uM
[9] = competitive fluorescence polarization, mean ± SD, read-out: Kd Gal-3C
[10] = four-parameter logistic model, mean ± SD, read-out: IC50 Gal-3C

T1 sequence (P09382 2-135): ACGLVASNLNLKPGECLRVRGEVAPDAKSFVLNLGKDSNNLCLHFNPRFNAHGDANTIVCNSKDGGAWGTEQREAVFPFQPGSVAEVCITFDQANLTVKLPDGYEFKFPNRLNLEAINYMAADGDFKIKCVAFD
T2 sequence (P17931 118-248 limits assumed): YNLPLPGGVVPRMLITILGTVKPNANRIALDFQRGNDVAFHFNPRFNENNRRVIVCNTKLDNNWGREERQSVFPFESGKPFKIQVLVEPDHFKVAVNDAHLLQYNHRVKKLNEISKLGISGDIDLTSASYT

| SMILES | IC50 [1, 3] [µM] | Kd [1, 4] [µM] | Kd [1, 5] [µM] | IC50 [1, 6] [µM] | IC50 [2, 7] [µM] | Kd [2, 8] [µM] | Kd [2, 9] [µM] | IC50 [2, 10] [µM] |
| --- | --- | --- | --- | --- | --- | --- | --- | --- |
| CC(=O)N(c1cccc(C(F)(F)F)c1)[C@@H]1O[C@H](CO)[C@@H](O[C@@H]2O[C@H](CO)[C@H](O)[C@H](O)[C@H]2O)[C@H](O)[C@H]1O [Compound 3d, N-[4-O-(β-D-Galactopyranosyl)-β-D-glucopyranosyl]-N-(3-trifluoromethylphenyl)acetamide] | 1040 | 560 | 560 ± 100 | 1000 ± 90 | 489 | 160 | 160 ± 30 | 490 ± 60 |
| CC(=O)N(c1ccc(F)cc1)[C@@H]1O[C@H](CO)[C@@H](O[C@@H]2O[C@H](CO)[C@H](O)[C@H](O)[C@H]2O)[C@H](O)[C@H]1O [Compound 3e, N-[4-O-(β-D-Galactopyranosyl)-β-D-glucopyranosyl]-N-(4-fluorophenyl)acetamide] | 595 | 322 | 320 ± 100 | 590 ± 70 | 275 | 87.1 | 87 ± 10 | 270 ± 10 |
| CC(=O)N(c1cccc(F)c1)[C@@H]1O[C@H](CO)[C@@H](O[C@@H]2O[C@H](CO)[C@H](O)[C@H](O)[C@H]2O)[C@H](O)[C@H]1O [Compound 3f, N-[4-O-(β-D-Galactopyranosyl)-β-D-glucopyranosyl]-N-(3-fluorophenyl)acetamide] | 671 | 361 | 360 ± 20 | 670 ± 30 | 305 | 98.1 | 98 ± 3 | 300 ± 50 |
| CC(=O)N(c1ccccc1F)[C@@H]1O[C@H](CO)[C@@H](O[C@@H]2O[C@H](CO)[C@H](O)[C@H](O)[C@H]2O)[C@H](O)[C@H]1O [Compound 3g, N-[4-O-(β-D-Galactopyranosyl)-β-D-glucopyranosyl]-N-(2-fluorophenyl)acetamide] | 931 | 507 | 510 ± 30 | 930 ± 8 | 282 | 93.2 | 93 ± 20 | 280 ± 20 |
| CC(=O)N(c1ccc(F)c(F)c1)[C@@H]1O[C@H](CO)[C@@H](O[C@@H]2O[C@H](CO)[C@H](O)[C@H](O)[C@H]2O)[C@H](O)[C@H]1O [Compound 3h, N-[4-O-(β-D-Galactopyranosyl)-β-D-glucopyranosyl]-N-(3,4-difluorophenyl)acetamide] | 597 | 399 | 400 ± 20 | 600 ± 20 | 284 | 127 | 130 ± 80 | 280 ± 100 |
| CC(=O)N(c1cc(F)c(F)c(F)c1)[C@@H]1O[C@H](CO)[C@@H](O[C@@H]2O[C@H](CO)[C@H](O)[C@H](O)[C@H]2O)[C@H](O)[C@H]1O [Compound 3i, N-[4-O-(β-D-Galactopyranosyl)-β-D-glucopyranosyl]-N-(3,4,5-trifluorophenyl)acetamide] | 565 | 314 | 310 ± 90 | 570 ± 10 | 328 | 111 | 110 ± 8 | 330 ± 5 |
| CC(=O)N(c1ccc(Cl)cc1)[C@@H]1O[C@H](CO)[C@@H](O[C@@H]2O[C@H](CO)[C@H](O)[C@H](O)[C@H]2O)[C@H](O)[C@H]1O [Compound 3j, N-[4-O-(β-D-Galactopyranosyl)-β-D-glucopyranosyl]-N-(4-chlorophenyl)acetamide] | 654 | 363 | 360 ± 30 | 650 ± 30 | 363 | 113 | 110 ± 10 | 360 ± 10 |
| CC(=O)N(c1ccc(Cl)c(Cl)c1)[C@@H]1O[C@H](CO)[C@@H](O[C@@H]2O[C@H](CO)[C@H](O)[C@H](O)[C@H]2O)[C@H](O)[C@H]1O [Compound 3k, N-[4-O-(β-D-Galactopyranosyl)-β-D-glucopyranosyl]-N-(3,4-dichlorophenyl)acetamide] | 659 | 376 | 380 ± 60 | 660 ± 8 | 346 | 112 | 110 ± 20 | 350 ± 40 |
